Test results reported in publication PMC2832311 (Journal of medicinal chemistry, 2009).
Entries after “also recorded” stand apart in the source; their conditions may differ. Like-named read-outs stand apart in the source and are kept apart here.

Columns and labels:
[1] = molecular target: T1, human 5-HT2C (INI) receptor (Homo sapiens, UniProt P28335); assay: Calcium flux assay, 5-HT2C; conditions: for 5-HT2C agonist efficacy (in words): calcium flux; for EC50: NA: Emax ≤ 12%; for Emax: read-out: 5-HT2C Emax, percent of maximal activation by 5-HT; for Selectivity 2A/2C / Selectivity 2B/2C: EC50 ratio
T1 sequence (P28335 33-458): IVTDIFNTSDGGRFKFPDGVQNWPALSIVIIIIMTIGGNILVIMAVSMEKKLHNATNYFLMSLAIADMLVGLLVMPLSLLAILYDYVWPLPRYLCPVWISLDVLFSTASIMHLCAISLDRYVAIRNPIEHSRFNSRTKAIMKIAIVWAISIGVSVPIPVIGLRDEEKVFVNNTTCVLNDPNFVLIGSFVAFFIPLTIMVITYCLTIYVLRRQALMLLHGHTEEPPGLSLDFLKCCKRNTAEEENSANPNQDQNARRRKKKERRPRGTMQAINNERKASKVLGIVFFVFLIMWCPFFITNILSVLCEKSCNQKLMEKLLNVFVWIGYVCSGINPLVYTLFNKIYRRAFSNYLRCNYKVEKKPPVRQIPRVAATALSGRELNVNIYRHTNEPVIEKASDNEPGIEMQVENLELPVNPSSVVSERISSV

MAO = conditions: tryptamine potentiation model; cited from earlier work
human 5-HT2B receptor = human 5-HT2B receptor (Homo sapiens, UniProt P41595); assay: Calcium flux assay, 5-HT2B; conditions: for EC50: 5-HT2B EC50, HEK-293, NA: Emax ≤ 12%; for Emax: read-out: 5-HT2B Emax, percent of maximal activation by 5-HT
Sequence of human 5-HT2B receptor (P41595 whole entry): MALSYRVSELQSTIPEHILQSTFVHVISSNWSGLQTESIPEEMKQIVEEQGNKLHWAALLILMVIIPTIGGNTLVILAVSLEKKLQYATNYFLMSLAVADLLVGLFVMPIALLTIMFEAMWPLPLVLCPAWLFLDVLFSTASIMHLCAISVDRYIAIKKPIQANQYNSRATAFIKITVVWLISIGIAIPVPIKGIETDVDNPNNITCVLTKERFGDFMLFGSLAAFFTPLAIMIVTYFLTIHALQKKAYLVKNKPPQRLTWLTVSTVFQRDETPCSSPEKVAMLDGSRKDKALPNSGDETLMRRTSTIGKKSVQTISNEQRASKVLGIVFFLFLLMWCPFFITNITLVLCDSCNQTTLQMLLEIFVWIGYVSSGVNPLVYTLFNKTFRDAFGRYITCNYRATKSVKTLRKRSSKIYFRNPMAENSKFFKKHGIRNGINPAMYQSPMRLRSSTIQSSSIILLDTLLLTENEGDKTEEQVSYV

human 5-HT2A receptor = human 5-HT2A receptor (Homo sapiens, UniProt P28223); assay: Calcium flux assay, 5-HT2A; conditions: for EC50: 5-HT2A EC50, HEK-293, NA: Emax ≤ 12%; for Emax: read-out: 5-HT2A Emax, percent of maximal activation by 5-HT
Sequence of human 5-HT2A receptor (P28223 whole entry): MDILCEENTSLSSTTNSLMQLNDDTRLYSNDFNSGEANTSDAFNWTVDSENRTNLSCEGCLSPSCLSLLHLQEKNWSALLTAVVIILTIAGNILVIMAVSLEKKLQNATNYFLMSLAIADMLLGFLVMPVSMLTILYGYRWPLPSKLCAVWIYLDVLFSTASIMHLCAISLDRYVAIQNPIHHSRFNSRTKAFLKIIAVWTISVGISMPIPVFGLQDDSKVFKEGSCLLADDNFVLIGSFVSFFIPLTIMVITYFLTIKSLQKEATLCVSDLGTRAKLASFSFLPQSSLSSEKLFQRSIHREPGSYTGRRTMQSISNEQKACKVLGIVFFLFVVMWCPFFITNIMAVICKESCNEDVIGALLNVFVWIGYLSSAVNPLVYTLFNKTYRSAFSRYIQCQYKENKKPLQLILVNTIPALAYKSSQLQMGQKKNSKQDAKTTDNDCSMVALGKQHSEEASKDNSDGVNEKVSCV

C57BL/6J male mice = assay: Mouse forced swim test; type: in vivo; conditions: 30 min prior to testing
[2] = 5-HT2C EC50, HEK-293, Table 2 section 1
[3] = 5-HT2C EC50, HEK-293, Table 2 section 4
[4] = Table 2 section 1 (independent campaign)
[5] = Table 2 section 2 (independent campaign)
[6] = 5-HT2C EC50, HEK-293, Table 2 section 2

In the case of `N[C@@H]1C[C@H]1c1ccccc1` (racemic) [compound 9, tranylcypromine, reference compound], the “5-HT2C agonist efficacy (in words)” value [1] is reported as “full agonists”.
For `Cl.NC[C@@H]1C[C@H]1c1ccccc1` (relative stereo) [14a, trans-(2-Phenylcyclopropyl)methylamine Hydrochloride], the “5-HT2C agonist efficacy (in words)” value [1] is given as “full agonists” and the MAO inhibitory activity (MAO) is given as “devoid of MAO inhibitory activity”.
`CC(C)N[C@@H]1C[C@H]1c1ccccc1` (relative stereo) [compound 18, trans-N-Isopropyl-(2-phenylcyclopropyl)amine] showed an EC50 ([1]; 5-HT2C EC50, HEK-293 stably transfected, Table 1 section 2) of 3420 nM and an Emax ([1]; Table 1 section 2) of 18%.
With `Cl.NC[C@H]1C[C@@H]1c1ccccc1F` (relative stereo) [compound 27, trans-[2-(2-Fluorophenyl)cyclopropyl]methylamine Hydrochloride] the EC50 [1, 2] was 37 nM, the EC50 [1, 3] was 33 nM and the “Selectivity 2A/2C” value ([1]; Table 2 section 1) was greater than 27. For the same molecule, the “Selectivity 2B/2C” value ([1]; Table 2 section 1) was 42, the “Selectivity 2A/2C” value ([1]; Table 2 section 2) was 32 and the “Selectivity 2B/2C” value ([1]; Table 2 section 2) was 6.8. The Emax ([1]; Table 2 section 1) was 94%, the EC50 (human 5-HT2B receptor; Table 2 section 1) was 1550 nM and the EC50 (human 5-HT2B receptor; Table 2 section 2) was 199 nM. The Emax (human 5-HT2B receptor; Table 2 section 2) was 89%, the Emax (human 5-HT2B receptor; Table 2 section 4) was 84% and the EC50 (human 5-HT2A receptor; [4]) was greater than 1000 nM. It also gave an EC50 (human 5-HT2A receptor; [5]) of 942 nM, an EC50 (human 5-HT2A receptor; Table 2 section 4 (independent campaign)) of 681 nM and an Emax (human 5-HT2A receptor; Table 2 section 2) of 79%. The Emax (human 5-HT2A receptor; Table 2 section 4) was 62%.
In the case of `Cl.NC[C@H]1C[C@@H]1c1ccccc1Cl` (relative stereo) [compound 28, trans-[2-(2-Chlorophenyl)cyclopropyl]methylamine Hydrochloride], the EC50 [1, 6] is reported as 5.5 nM, the “Selectivity 2A/2C” value ([1]; Table 2 section 1) is reported as 79 and the “Selectivity 2B/2C” value ([1]; Table 2 section 1) is reported as 16. For the same molecule, the Emax ([1]; Table 2 section 1) was 98%, the EC50 (human 5-HT2B receptor; Table 2 section 1) was 84 nM and the EC50 (human 5-HT2A receptor; [4]) was 403 nM. The Emax (human 5-HT2A receptor; Table 2 section 2) was 87%.
With `Cl.NC[C@@H]1C[C@H]1c1ccccc1Br` (relative stereo) [compound 29, trans-[2-(2-Bromophenyl)cyclopropyl]methylamine Hydrochloride] the EC50 [1, 2] was 2.8 nM, the “Selectivity 2A/2C” value ([1]; Table 2 section 1) was 206 and the “Selectivity 2B/2C” value ([1]; Table 2 section 1) was 54. The Emax ([1]; Table 2 section 1) was 93%, the EC50 (human 5-HT2B receptor; Table 2 section 1) was 154 nM and the EC50 (human 5-HT2A receptor; [4]) was 585 nM.
For `Cl.NC[C@H]1C[C@@H]1c1cccc(F)c1` (relative stereo) [compound 34, trans-[2-(3-Fluorophenyl)cyclopropyl]methylamine Hydrochloride], the EC50 [1, 2] was 3.9 nM, the “Selectivity 2A/2C” value ([1]; Table 2 section 1) was 450 and the “Selectivity 2B/2C” value ([1]; Table 2 section 1) was 13. The “Selectivity 2A/2C” value ([1]; Table 2 section 2) was 225, the “Selectivity 2B/2C” value ([1]; Table 2 section 2) was 4.0 and the Emax ([1]; Table 2 section 2) was 97%. It also gave an Emax ([1]; Table 2 section 4) of 96%, an EC50 (human 5-HT2B receptor; Table 2 section 1) of 51 nM and an EC50 (human 5-HT2B receptor; Table 2 section 2) of 13 nM. It also gave an Emax (human 5-HT2B receptor; Table 2 section 1) of 106%, an Emax (human 5-HT2B receptor; Table 2 section 2) of 96% and an EC50 (human 5-HT2A receptor; [4]) of 1770 nM. For the same molecule, the EC50 (human 5-HT2A receptor; [5]) was 733 nM and the Emax (human 5-HT2A receptor; Table 2 section 4) was 73%.
With `Cc1cccc([C@H]2C[C@@H]2CN)c1.Cl` (relative stereo) [compound 37, trans-[2-(3-Methylphenyl)cyclopropyl]methylamine Hydrochloride] the “immobility time (in words)” value (C57BL/6J male mice; 10–60 mg/kg i.p., vs vehicle) was “decreased immobility time; also recorded: significant decrease in immobility; also recorded: dose-dependent decrease in immobility time”.
With `Cl.NC[C@H]1C[C@@H]1c1ccc(F)cc1` (relative stereo) [compound 41, trans-[2-(4-Fluorophenyl)cyclopropyl]methylamine Hydrochloride] the EC50 [1, 6] was 8.4 nM, the EC50 [1, 3] was 11 nM and the “Selectivity 2A/2C” value ([1]; Table 2 section 1) was 202. For the same molecule, the “Selectivity 2B/2C” value ([1]; Table 2 section 1) was 57, the “Selectivity 2A/2C” value ([1]; Table 2 section 2) was 77 and the “Selectivity 2B/2C” value ([1]; Table 2 section 2) was 6.8. It also gave an Emax ([1]; Table 2 section 4) of 96%, an EC50 (human 5-HT2B receptor; Table 2 section 1) of 312 nM and an EC50 (human 5-HT2B receptor; Table 2 section 2) of 57 nM. For the same molecule, the Emax (human 5-HT2B receptor; Table 2 section 1) was 95%, the EC50 (human 5-HT2A receptor; [4]) was 1100 nM and the EC50 (human 5-HT2A receptor; [5]) was 646 nM. The Emax (human 5-HT2A receptor; Table 2 section 2) was 80% and the Emax (human 5-HT2A receptor; Table 2 section 4) was 68%.
For `Cl.NC[C@H]1C[C@@H]1c1ccc(C(F)(F)F)cc1` (relative stereo) [compound 45, trans-[2-(4-Trifluoromethylphenyl)cyclopropyl]methylamine Hydrochloride], the “Selectivity 2B/2C” value ([1]; Table 2 section 1) was greater than 1.
With `Cl.NC[C@H]1C[C@@H]1c1ccccc1` [(+)-14a, (+)-trans-(S,S)-(2-Phenylcyclopropyl)methylamine Hydrochloride] the “5-HT2C agonist efficacy (in words)” value [1] was “full agonists”.
With `Cl.NC[C@@H]1C[C@H]1c1ccccc1` [(−)-14a, (−)-trans-(R,R)-(2-Phenylcyclopropyl)methylamine Hydrochloride] the “Selectivity 2A/2C” value ([1]; Table 1 section 2) was greater than 10.
Work on `C[C@H]1CNCCc2ccc(Cl)cc21` [compound 7, (1R)-8-chloro-2,3,4,5-tetrahydro-1-methyl-1H-3-benzazepine, reference compound] yielded an Emax ([1]; Table 2 section 4) of 96% and an Emax (human 5-HT2A receptor; Table 2 section 4) of 33%.
With `CN[C@H]1CC[C@@H](c2ccc(Cl)c(Cl)c2)c2ccccc21` [compound 92, sertraline, reference compound] the “immobility time (in words)” value (C57BL/6J male mice; 10 mg/kg i.p., positive control, p < 0.001) was “significant decrease in immobility; also recorded: significantly reduced the immobility time”.
